Experiments:
Format in all cases: in vivo
[1] = test system: Myzus persicae (Green peach aphids); assay: Curative control of Myzus persicae mixed aged population on Chinese cabbage, spray application; conditions: 120 and 60 g ai/ha
Excerpt: (§1) Examples 1 to 3 describe biological tests relating to the curative and preventative control of a series of insects with the spray application of dilutions of a formulation containing clethodim as sole active ingredient (ai) (EC240 formulation (SELECT®)) in combination with OCHIMAR adjuvant (Syngenta—alkyl ester of phosphoric acid (752 g/L EC) formulation) to bean or cabbage plants infested with Bemisia tabaci, Frankliniella occidentalis or Myzus persicae (four replicates). The testing protocols and insect control effects are shown below.
Curative control of Myzus persicae (Green peach aphids), mixed aged population, on Chinese cabbage (BBCH19).
All adjuvant containing treatments were applied with 250 mL adjuvant (OCHIMA®) per hectare.

[2] = test system: Bemisia tabaci (Silverleaf whitefly); assay: Curative control of Bemisia tabaci second nymph stage (N2) on French beans, spray application
Excerpt: as §1
Curative control of Bemisia tabaci (Silverleaf whitefly), second nymph stage (N2), treated on French beans (BBCH12):
All treatments (including check) were applied with 250 ml adjuvant (OCHIMA®) per hectare.

[3] = test system: Frankliniella occidentalis (Western flower thrips); assay: Frankliniella occidentalis mixed aged population infested on French beans three hours after treatment, plant damage evaluation; conditions: 60 g ai/ha; plant damage by feeding on leaf tissue
Excerpt: as §1
Frankliniella occidentalis (Western flower thrips), mixed aged population, infested on French beans (BBCH12) three hours after treatment.
All treatments (including check) were applied with 250 mL adjuvant (OCHIMA®) per hectare. The above table relates to an evaluation of plant damage caused by Western flower thrips feeding on leaf tissue.

CCSC(C)CC1CC(=O)C(/C(CC)=N\OC/C=C/Cl)=C(O)C1 (racemic) [clethodim, (5RS)-2-[(1EZ)-N-{[(2E)-3-chloroallyl]oxy}propanimidoyl]-5-[(2RS)-2-(ethylthio)propyl]-3-hydroxycyclohex-2-en-1-one]
control effect against aphids against the check treatment [1]: at best minor
efficacy against whiteflies compared to thrips or aphids ([2]; data in Tables 1 to 3): surprising selective efficacy
control effect against whiteflies against the check treatment ([2]; two ai application rates (120 and 60 g ai/ha)): significant control effect
control effect against Western flower thrips against the check treatment [3]: at best minor

From patent publication US20240224995A1, “USE OF CLETHODIM FOR INSECT CONTROL” (SYNGENTA CROP PROTECTION AG, priority 2021, published 2024)
